The values that follow come from patent publication EP4656630A1, “NOVEL COMPOUND AS LYSYL-TRNA SYNTHETASE 1 INHIBITOR, AND USE THEREOF” (Zymedi Co., Ltd., priority 2023, dated 2024).

In one data set the test system is Raw 264.7 cells. In words: LN (Laminin 421)-induced immune cell migration, Transwell. In kind it is cell-based. To be noted: Mus musculus, RAW264.7; 3 µM compound, LN (Laminin 421 1 µg/ml), 24 hours, % inhibition compared to control group; read-out: Migration inhibitor % (3uM). How it is done: Cell migration was assessed based on the method described in the prior literature (Park, S. G. et al. Human lysyl-tRNA synthetase is secreted to trigger proinflammatory response. Proceedings of the National Academy of Sciences, 2005, 102.18: 6356-6361.). The specific experimental method is as follows. A Transwell (Corning#3421-5µm pore) was coated with gelatin (0.5mg/ml), and then Raw 264.7 cells (1 x 10^5 cells/well) were seeded in the upper chamber. Serum-free medium (Serum Free DMEM, 500 µl) containing LN (Laminin 421 1 µg/ml) was added to the lower chamber. Each compound was treated at a concentration of 3µM in the upper chamber. After 24 hours, the cells were fixed with 70% methanol for 30 minutes and stained with 50% hematoxylin for 30 minutes. Non-migrating cells on the upper side of the membrane were removed with a cotton swab, and the membrane was mounted on a slide. Migrating cells on the lower side of the membrane were observed under a high-power microscope, and the number of cells was measured from the obtained images and expressed as the inhibition rate (% inhibition) compared to the control group.

The next data set concerns the target T1, KARS1 and 37LR (Homo sapiens, UniProt Q15046).
T1 construct: KARS1 (1-207aa)
Description: Cell-free ELISA of KARS1 and 37LR (laminin receptor) binding. The settings on record: 10 µM compound, 1 hour, plate coated with KARS1 (1-207aa), LRF. The method, then: Next, based on the mechanism of action, a cell-free ELISA analysis was conducted to select compounds with high inhibitory activity on the binding of KARS1 and LR (laminin receptor).
For orientation: In an ELISA, binding on a coated surface is turned into a signal by an enzyme label.

The test system of the next data set is Raw264.7 cells. In words: KARS1-induced trans-migration assay. The settings on record: Mus musculus, RAW264.7; 1 µM compound; read-out: KARS1-induced Raw264.7 cell migration (% inhibition, 1uM). In kind it is cell-based, mouse. How it is done:
C0001 inhibits the binding of KARS1 and 67LR, thereby blocking the migration of monocytes/macrophages and suppressing inflammation. Accordingly, a trans-migration assay using mouse macrophages (Raw264.7) was conducted to preliminarily screen drugs that inhibit the migration of monocytes/macrophages.
Based on this, when KARS1 protein was directly treated externally instead of LN, the trans-migration of Raw264.7 was induced, and the cell migration inhibitory effect of the KARS1 inhibitor C0001 was confirmed. It was verified that C0001, which specifically binds to KARS1, can inhibit cell migration by binding to extracellular KARS1, in addition to the mechanism of inhibiting cell membrane migration of KARS1 induced by laminin and its binding to 67LR, thereby enabling this analysis to be used as a direct method for evaluating in vitro activity against KARS1.
Next, preliminary candidate substances with high inhibitory activity at 1 µM were treated at concentrations of 0.1~4 µM for analysis.

Data set [1] can be described thus: Microsomal metabolic stability, rat. Type of data set: in vitro ADME. How it is done: (§1) Metabolic stability (MS) evaluation was conducted for the selected compounds by measuring in vitro stability in two species, rat and human, according to the microsomal stability measurement method. As a result, it was identified that MS varied depending on the transformation of parts A, B, and C.

Data set [2] in a line: Microsomal metabolic stability, human. Type of data set: in vitro ADME. How it is done:
as §1

T1 sequence (Q15046 1-207): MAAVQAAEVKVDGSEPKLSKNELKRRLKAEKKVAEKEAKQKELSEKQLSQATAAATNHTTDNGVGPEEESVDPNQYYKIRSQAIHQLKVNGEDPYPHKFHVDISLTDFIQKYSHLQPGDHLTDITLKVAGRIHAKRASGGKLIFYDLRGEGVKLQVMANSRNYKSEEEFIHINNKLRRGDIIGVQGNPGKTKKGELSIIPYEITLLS

In the case of `COc1ccc(CCN(Cc2ccc(C(=O)N[C@@H](C(=O)O)C(C)C)cc2)c2nc3cccc(F)c3s2)cc1` [Compound 18, (4-(((7-fluorobenzo[d]thiazol-2-yl)(4-methoxyphenethyl)amino)-methyl)benzoyl)-D-valine], the inhibition at 3 µM with Raw 264.7 cells was 9%. The inhibition at 10 µM at KARS1 and 37LR came out at 86.2%. The inhibition at 1 µM with Raw264.7 cells worked out at 31%.

Take `COc1ccc(CCN(Cc2ccc(N3CC(C(=O)O)C3)cc2)c2nc3cccc(F)c3s2)cc1` [Compound 39, 1-(4-(((7-fluorobenzo[d]thiazol-2-yl)(4-methoxyphenethyl)amino)-methyl)phenyl)azetidine-3-carboxylic acid]: the inhibition at 3 µM with Raw 264.7 cells amounted to 51.9%. Besides, the inhibition at 10 µM at KARS1 and 37LR turned out to be 37.5%. The inhibition at 1 µM in the data set with Raw264.7 cells came to 97.4%.

For `COc1ccc(CCN(Cc2ccc3c(c2)CN(CC(=O)O)C3)c2nc3cccc(F)c3s2)cc1` [Compound 32, 2-(5-(((7-fluorobenzo[d]thiazol-2-yl)(4-methoxyphenethyl)amino)-methyl)isoindolin-2-yl)acetic acid], in the data set on Raw 264.7 cells, the inhibition at 3 µM worked out at 45%. In addition, the inhibition at 10 µM on KARS1 and 37LR is -27.9%. The inhibition at 1 µM in the data set with Raw264.7 cells turned out to be 18.1%.

`C#Cc1ccc(CN(CCc2ccc(OC)cc2)c2ncc3ccn(C)c3n2)cc1` [Compound 11, N-(4-ethynylbenzyl)-N-(4-methoxyphenethyl)-7-methyl-7H-pyrrolo[2,3-d]pyrimidin-2-amine]: the inhibition at 3 µM in the data set on Raw 264.7 cells was 12%. For the same compound, the inhibition at 10 µM at KARS1 and 37LR was 3%. In addition, the inhibition at 1 µM with Raw264.7 cells was 37.8%.

Turning to `COc1ccc(CCN(Cc2nc3ccc(B(O)O)cc3n2C)c2nc3cccc(F)c3s2)cc1` [Compound 21, (2-(((7-fluorobenzo[d]thiazol-2-yl)(4-methoxyphenethyl)amino)-methyl)-1-methyl-1H-benzo[d]imidazol-6-yl)boronic acid], the inhibition at 3 µM in the data set with Raw 264.7 cells was found to be 36%. At KARS1 and 37LR, the inhibition at 10 µM was 8.9%. Further, in the data set on Raw264.7 cells, the inhibition at 1 µM turned out to be 26.1%.

Regarding `COc1ccc(CCN(Cc2ccc(Br)cc2)c2ncc3ccn(C)c3n2)cc1` [Compound 7, N-(4-bromobenzyl)-N-(4-methoxyphenethyl)-7-methyl-7H-pyrrolo[2,3-d]pyrimidin-2-amine], the inhibition at 3 µM in the data set with Raw 264.7 cells is 10.9%. Besides, the inhibition at 10 µM on KARS1 and 37LR turned out to be 9.5%. Further, in the data set on Raw264.7 cells, the inhibition at 1 µM worked out at 39.1%.

For the compound `O=C(O)[C@@H]1CCN(c2cccc(CN(CCc3ccc(OC(F)(F)F)cc3)c3nc4cccc(F)c4s3)c2)C1` [Compound 40, (R)-1-(3-(((7-fluorobenzo[d]thiazol-2-yl)(4-(trifluoromethoxy)-phenethyl)amino)methyl)phenyl)pyrrolidine-3-carboxylic acid], the inhibition at 3 µM in the data set with Raw 264.7 cells came out at 37.7%. Besides, the inhibition at 10 µM on KARS1 and 37LR is 66.7%. Moreover, in the data set on Raw264.7 cells, the inhibition at 1 µM was determined as 76.1%.

For the compound `CCN(CC)C(=O)C#Cc1ccc(CN(CCc2ccc(OC)cc2)c2nc3cccc(F)c3s2)cc1` [Compound 3, N,N-diethyl-3-(4-(((7-fluorobenzo[d]thiazol-2-yl)(4-methoxyphenethyl)amino)methyl)phenyl)propiolamide], in the data set with Raw 264.7 cells, the inhibition at 3 µM was 0%. For the same compound, the inhibition at 10 µM on KARS1 and 37LR is 4.7%. Moreover, the inhibition at 1 µM in the data set with Raw264.7 cells is 22.6%.

In the case of `COc1ccc(CCN(Cc2ccc(-c3ccc(C(=O)O)o3)cc2)c2nc3cccc(F)c3s2)cc1` [Compound 26, 5-(4-(((7-fluorobenzo[d]thiazol-2-yl)(4-methoxyphenethyl)amino)-methyl)phenyl)furan-2-carboxylic acid], the inhibition at 3 µM in the data set on Raw 264.7 cells amounted to 48%. The inhibition at 10 µM at KARS1 and 37LR is 78.4%. For the same compound, the inhibition at 1 µM in the data set with Raw264.7 cells was found to be 80.6%.

With `COc1ccc(CCN(Cc2ccc(C#C[Si](C)(C)C)cc2)c2ncc3ccn(C)c3n2)cc1` [Compound 10, N-(4-methoxyphenethyl)-7-methyl-N-(4-((trimethylsilyl)ethynyl)-benzyl)-7H-pyrrolo[2,3-d]pyrimidin-2-amine], the inhibition at 3 µM in the data set with Raw 264.7 cells is 0%. Besides, at KARS1 and 37LR, the inhibition at 10 µM turned out to be 9.8%. Further, the inhibition at 1 µM in the data set on Raw264.7 cells worked out at 11.7%.

`COc1ccc(CCN(Cc2ccc(C(=O)N3CCC(C(=O)O)C3)cc2)c2nc3cccc(F)c3s2)cc1` (centres unmarked) [Compound 15, 1-(4-(((7-fluorobenzo[d]thiazol-2-yl)(4-methoxyphenethyl)amino)-methyl)benzoyl)pyrrolidine-3-carboxylic acid]: the inhibition at 3 µM with Raw 264.7 cells came to 0%. Further, the inhibition at 10 µM on KARS1 and 37LR stood at 86.4%. In the data set with Raw264.7 cells, the inhibition at 1 µM came to 54.4%.

Consider `CNC(=O)C#Cc1ccc(CN(CCc2ccc(OC)cc2)c2nc3cccc(F)c3s2)cc1` [Compound 4, 3-(4-(((7-fluorobenzo[d]thiazol-2-yl)(4-methoxyphenethyl)amino)-methyl)phenyl)-N-methylpropiolamide], for which, in the data set with Raw 264.7 cells, the inhibition at 3 µM was 88%. For the same compound, the inhibition at 10 µM at KARS1 and 37LR was determined as 13.8%. The inhibition at 1 µM in the data set with Raw264.7 cells turned out to be 9.8%.

For the compound `COc1ccc(CCN(Cc2ccc(NC3(C(=O)O)CCC3)cc2)c2nc3cccc(F)c3s2)cc1` [Compound 33, 1-((4-(((7-fluorobenzo[d]thiazol-2-yl)(4-methoxyphenethyl)amino)-methyl)phenyl)amino)cyclobutane-1-carboxylic acid], the inhibition at 3 µM with Raw 264.7 cells came to 15.7%. Besides, at KARS1 and 37LR, the inhibition at 10 µM came to 41.9%. In addition, the inhibition at 1 µM in the data set on Raw264.7 cells is 57.6%.

`COc1ccc(CCN(Cc2nc3ccc(C(=O)O)cc3n2C)c2nc3cccc(F)c3s2)cc1` [Compound 27, 2-(((7-fluorobenzo[d]thiazol-2-yl)(4-methoxyphenethyl)amino)methyl)-1-methyl-1H-benzo[d]imidazole-6-carboxylic acid]: in the data set on Raw 264.7 cells, the inhibition at 3 µM is 9%. Further, the inhibition at 10 µM at KARS1 and 37LR stood at 14%. Further, the inhibition at 1 µM with Raw264.7 cells amounted to 9.1%.

Regarding `COc1ccc(CCN(Cc2ccc(C(=O)NCC(=O)O)cc2)c2nc3cccc(F)c3s2)cc1` [Compound 16, (4-(((7-fluorobenzo[d]thiazol-2-yl)(4-methoxyphenethyl)amino)-methyl)benzoyl)glycine], in the data set on Raw 264.7 cells, the inhibition at 3 µM is 33%. The inhibition at 10 µM at KARS1 and 37LR worked out at 68.2%. The inhibition at 1 µM with Raw264.7 cells was 86.2%.

With `COc1ccc(CCN(Cc2cccc(N3CC[C@@H](C(=O)O)C3)c2)c2nc3cccc(F)c3s2)cc1` [Compound 23, (R)-1-(3-(((7-fluorobenzo[d]thiazol-2-yl)(4-methoxyphenethyl)amino)-methyl)phenyl)pyrrolidine-3-carboxylic acid], the inhibition at 3 µM in the data set on Raw 264.7 cells came out at 59%. Also, the inhibition at 10 µM on KARS1 and 37LR was determined as 71.6%. In addition, in the data set on Raw264.7 cells, the inhibition at 1 µM stood at 35.4%.

In the case of `COc1ccc(CCN(Cc2cccc(N3CCC(C(=O)O)C3)c2)c2nc3cccc(F)c3s2)cc1` (centres unmarked) [Compound 17, 1-(3-(((7-fluorobenzo[d]thiazol-2-yl)(4-methoxyphenethyl)amino)-methyl)phenyl)pyrrolidine-3-carboxylic acid], the inhibition at 3 µM in the data set with Raw 264.7 cells came out at 42%. Besides, the inhibition at 10 µM at KARS1 and 37LR amounted to 79%. For the same compound, the inhibition at 1 µM with Raw264.7 cells stood at 5.6%. In data set [1], the “Metabolic stability (% remaining at 30 min) Rat” value is listed as 71%. In data set [2], the “Metabolic stability (% remaining at 30 min) Human” value stood at 58%.

With `COc1ccc(CCNc2ncc3ccn(C)c3n2)cc1` [Compound 6, N-(4-methoxyphenethyl)-7-methyl-7H-pyrrolo[2,3-d]pyrimidin-2-amine], the inhibition at 3 µM in the data set with Raw 264.7 cells was determined as 5.1%. On KARS1 and 37LR, the inhibition at 10 µM turned out to be 14.8%. Besides, in the data set on Raw264.7 cells, the inhibition at 1 µM amounted to 23.5%.

For the compound `COc1ccc(CCN(Cc2ccc3c(c2)CN(C(N)=O)C3)c2nc3cccc(F)c3s2)cc1` [Compound 30, 5-(((7-fluorobenzo[d]thiazol-2-yl)(4-methoxyphenethyl)amino)-methyl)isoindoline-2-carboxamide], the inhibition at 3 µM in the data set with Raw 264.7 cells turned out to be 37.4%. Further, the inhibition at 10 µM at KARS1 and 37LR amounted to 64%. In addition, in the data set on Raw264.7 cells, the inhibition at 1 µM was 3.2%.

As to `COc1ccc(CCN(Cc2cccc(N3CC[C@H](C(=O)O)C3)c2)c2nc3cccc(F)c3s2)cc1` [Compound 22, (S)-1-(3-(((7-fluorobenzo[d]thiazol-2-yl)(4-methoxyphenethyl)amino)-methyl)phenyl)pyrrolidine-3-carboxylic acid], in the data set on Raw 264.7 cells, the inhibition at 3 µM is 19%. Besides, on KARS1 and 37LR, the inhibition at 10 µM is 52%. Moreover, in the data set on Raw264.7 cells, the inhibition at 1 µM was 43.4%.
